Earlier results on two molecules are cited in paper PMC9847093 (Protein Science : A Publication of the Protein Society, 2023).

As a reminder, the pKa is the negative logarithm of the acid dissociation constant.

The conditions of this data set: for pKa of monomers used to calculate theoretical number of charges per AOS: M and G monomers; for pKa: ref Draget et al., [1994].

With `O=C(O)[C@@H]1O[C@@H](O)[C@@H](O)[C@@H](O)[C@@H]1O` [G, α‐L‐guluronate], the “pKa of monomers used to calculate theoretical number of charges per AOS” value is 3.65 and the pKa was 3.7.
Regarding `O=C(O)[C@H]1O[C@@H](O)[C@@H](O)[C@@H](O)[C@@H]1O` [M, β‐D‐mannuronate], the “pKa of monomers used to calculate theoretical number of charges per AOS” value was 3.38 and the pKa is 3.4.
